Measurements published in ChEMBL document CHEMBL3797119, “Pharmacokinetic Study of Two Macrolide Antibiotic Oral Suspensions Using an Optimized Bioassay Procedure” (J Bioequivalence Bioavailab, 2010).
One block for each molecule: values may come before it.

Experiments:
Format in all cases: ADME, organism-based
Details in all cases: in vivo
[1] = Cmax in healthy human (24 volunteers) at 500 mg, po test formulation of drug administered as single dose measured after 0.5 to 72 hrs; set-up: dose 500 mg, route oral
[2] = AUC (0 to infinity) in healthy human (24 volunteers) at 500 mg, po test formulation of drug administered as single dose measured after 0.5 to 72 hrs; set-up: dose 500 mg, route oral, time infinity
[3] = Clearance in healthy human (24 volunteers) at 500 mg, po reference formulation of drug administered as single dose by two-compartmental open model
Homo sapiens [4] = assay: Ratio of Cmax in healthy human (24 volunteers) at 500 mg, po test formulation of drug administered as single dose to Cmax in healthy human (24 volunteers) at 500 mg, po reference formulation of drug administered as single dose
[5] = Elimination rate constant from central compartment in healthy human (24 volunteers) at 500 mg, po test formulation of drug administered as single dose by two-compartmental open model
[6] = AUC (0 to infinity) in healthy human (24 volunteers) at 500 mg, po reference formulation of drug administered as single dose measured after 0.5 to 72 hrs; set-up: dose 500 mg, time infinity, route oral
Homo sapiens [7] = assay: First order inter-compartment transfer rate constant from central to peripheral compartment in healthy human (24 volunteers) at 500 mg, po test formulation of drug administered as single dose by two-compartmental open model
[8] = Tmax in healthy human (24 volunteers) at 500 mg, po reference formulation of drug administered as single dose
[9] = Elimination rate constant from central compartment in healthy human (24 volunteers) at 500 mg, po reference formulation of drug administered as single dose by two-compartmental open model
Homo sapiens [10] = assay: First order inter-compartment transfer rate constant from central to peripheral compartment in healthy human (24 volunteers) at 500 mg, po reference formulation of drug administered as single dose by two-compartmental open model
[11] = Tmax in healthy human (24 volunteers) at 500 mg, po test formulation of drug administered as single dose
Homo sapiens [12] = assay: First order inter-compartment transfer rate constant from peripheral to central compartment in healthy human (24 volunteers) at 500 mg, po reference formulation of drug administered as single dose by two-compartmental open model
[13] = Clearance in healthy human (24 volunteers) at 500 mg, po test formulation of drug administered as single dose by two-compartmental open model
[14] = AUC (0 to t) in healthy human (24 volunteers) at 500 mg, po reference formulation of drug administered as single dose measured after 0.5 to 72 hrs; set-up: time upper 72 hr, dose 500 mg, time lower 0.5 hr, route oral
[15] = Half life in healthy human (24 volunteers) at 500 mg, po test formulation of drug administered as single dose
[16] = Cmax in healthy human (24 volunteers) at 500 mg, po reference formulation of drug administered as single dose measured after 0.5 to 72 hrs; set-up: dose 500 mg, route oral
Homo sapiens [17] = assay: Volume of distribution in healthy human (24 volunteers) at 500 mg, po reference formulation of drug administered as single dose by two-compartmental open model
Homo sapiens [18] = assay: Ratio of AUC (0 to infinity) in healthy human (24 volunteers) at 500 mg, po test formulation of drug administered as single dose to AUC (0 to t) in healthy human (24 volunteers) at 500 mg, po reference formulation of drug administered as single dose
[19] = Half life in healthy human (24 volunteers) at 500 mg, po reference formulation of drug administered as single dose
Homo sapiens [20] = assay: First order inter-compartment transfer rate constant from peripheral to central compartment in healthy human (24 volunteers) at 500 mg, po test formulation of drug administered as single dose by two-compartmental open model
[21] = AUC (0 to t) in healthy human (24 volunteers) at 500 mg, po test formulation of drug administered as single dose measured after 0.5 to 72 hrs; set-up: time upper 72 hr, time lower 0.5 hr, dose 500 mg, route oral
Homo sapiens [22] = assay: Ratio of AUC (0 to t) in healthy human (24 volunteers) at 500 mg, po test formulation of drug administered as single dose to AUC (0 to t) in healthy human (24 volunteers) at 500 mg, po reference formulation of drug administered as single dose
Homo sapiens [23] = assay: Volume of distribution in healthy human (24 volunteers) at 500 mg, po test formulation of drug administered as single dose by two-compartmental open model
Homo sapiens [24] = assay: First order inter-compartment transfer rate constant from peripheral to central compartment in healthy human (24 volunteers) at 400 mg, po reference formulation of drug administered as single dose by two-compartmental open model
[25] = Elimination rate constant from central compartment in healthy human (24 volunteers) at 400 mg, po reference formulation of drug administered as single dose by two-compartmental open model
Homo sapiens [26] = assay: Ratio of AUC (0 to infinity) in healthy human (24 volunteers) at 400 mg, po test formulation of drug administered as single dose to AUC (0 to t) in healthy human (24 volunteers) at 400 mg, po reference formulation of drug administered as single dose
[27] = Half life in healthy human (24 volunteers) at 400 mg, po test formulation of drug administered as single dose
[28] = Clearance in healthy human (24 volunteers) at 400 mg, po test formulation of drug administered as single dose by two-compartmental open model
Homo sapiens [29] = assay: Volume of distribution in healthy human (24 volunteers) at 400 mg, po test formulation of drug administered as single dose by two-compartmental open model
Homo sapiens [30] = assay: Ratio of Cmax in healthy human (24 volunteers) at 400 mg, po test formulation of drug administered as single dose to Cmax in healthy human (24 volunteers) at 400 mg, po reference formulation of drug administered as single dose
Homo sapiens [31] = assay: First order inter-compartment transfer rate constant from central to peripheral compartment in healthy human (24 volunteers) at 400 mg, po test formulation of drug administered as single dose by two-compartmental open model
[32] = Half life in healthy human (24 volunteers) at 400 mg, po reference formulation of drug administered as single dose
[33] = Clearance in healthy human (24 volunteers) at 400 mg, po reference formulation of drug administered as single dose by two-compartmental open model
[34] = AUC (0 to infinity) in healthy human (24 volunteers) at 400 mg, po test formulation of drug administered as single dose measured after 0.5 to 10 hrs; set-up: dose 400 mg, time infinity, route oral
Homo sapiens [35] = assay: First order inter-compartment transfer rate constant from peripheral to central compartment in healthy human (24 volunteers) at 400 mg, po test formulation of drug administered as single dose by two-compartmental open model
[36] = Cmax in healthy human (24 volunteers) at 400 mg, po test formulation of drug administered as single dose measured after 0.5 to 10 hrs; set-up: dose 400 mg, route oral
Homo sapiens [37] = assay: First order inter-compartment transfer rate constant from central to peripheral compartment in healthy human (24 volunteers) at 400 mg, po reference formulation of drug administered as single dose by two-compartmental open model
Homo sapiens [38] = assay: Ratio of AUC (0 to t) in healthy human (24 volunteers) at 400 mg, po test formulation of drug administered as single dose to AUC (0 to t) in healthy human (24 volunteers) at 400 mg, po reference formulation of drug administered as single dose
[39] = AUC (0 to t) in healthy human (24 volunteers) at 400 mg, po reference formulation of drug administered as single dose measured after 0.5 to 10 hrs; set-up: time lower 0.5 hr, dose 400 mg, time upper 10 hr, route oral
[40] = Tmax in healthy human (24 volunteers) at 400 mg, po test formulation of drug administered as single dose
[41] = Elimination rate constant from central compartment in healthy human (24 volunteers) at 400 mg, po test formulation of drug administered as single dose by two-compartmental open model
[42] = AUC (0 to t) in healthy human (24 volunteers) at 400 mg, po test formulation of drug administered as single dose measured after 0.5 to 10 hrs; set-up: time 0.5-10 hr, dose 400 mg, route oral
[43] = Cmax in healthy human (24 volunteers) at 400 mg, po reference formulation of drug administered as single dose measured after 0.5 to 10 hrs; set-up: dose 400 mg, route oral
Homo sapiens [44] = assay: Volume of distribution in healthy human (24 volunteers) at 400 mg, po reference formulation of drug administered as single dose by two-compartmental open model
[45] = Tmax in healthy human (24 volunteers) at 400 mg, po reference formulation of drug administered as single dose
[46] = AUC (0 to infinity) in healthy human (24 volunteers) at 400 mg, po reference formulation of drug administered as single dose measured after 0.5 to 10 hrs; set-up: dose 400 mg, route oral, time infinity

Cmax [1]: 486 ng/mL
AUC(0-inf) [2]: 7990 ng·h/mL
CL/F [3]: 103 mL/min/kg
Ratio (Homo sapiens [4]): 1
k el [5]: 2.5e-05 s⁻¹
AUC(0-inf) [6]: 8440 ng·h/mL
K (Homo sapiens [7]): 0.419 h⁻¹
Tmax [8]: 2.08 h
k el [9]: 2.72e-05 s⁻¹
K (Homo sapiens [10]): 0.405 h⁻¹
Tmax [11]: 1.96 h
K (Homo sapiens [12]): 0.103 h⁻¹
CL/F [13]: 139 mL/min/kg
AUC(0-t) [14]: 8050 ng·h/mL
half-life [15]: 25 h
Cmax [16]: 488 ng/mL
Vd (Homo sapiens [17]): 36.8 L/kg
Ratio AUC (Homo sapiens [18]): 0.96
half-life [19]: 25.2 h
K (Homo sapiens [20]): 0.084 h⁻¹
AUC(0-t) [21]: 7580 ng·h/mL
Ratio AUC (Homo sapiens [22]): 0.95
Vd (Homo sapiens [23]): 32.2 L/kg
SMILES: CC[C@@H]1OC(=O)[C@H](C)[C@@H](O[C@@H]2C[C@](C)(OC)[C@H](O)[C@@H](C)O2)[C@@H](C)[C@@H](O[C@@H]2O[C@H](C)C[C@H](N(C)C)[C@H]2O)[C@](C)(O)C[C@@H](C)CN(C)[C@H](C)[C@@H](O)[C@]1(C)O

K (Homo sapiens [24]): 1.23 h⁻¹
k el [25]: 0.000123 s⁻¹
Ratio AUC (Homo sapiens [26]): 1.04
half-life [27]: 3.64 h
CL/F [28]: 225 mL/min/kg
Vd (Homo sapiens [29]): 10.4 L/kg
Ratio (Homo sapiens [30]): 1.07
K (Homo sapiens [31]): 2.26 h⁻¹
half-life [32]: 3.61 h
CL/F [33]: 23.3 mL/min/kg
AUC(0-inf) [34]: 4850 ng·h/mL
K (Homo sapiens [35]): 0.415 h⁻¹
Cmax [36]: 1170 ng/mL
K (Homo sapiens [37]): 1.34 h⁻¹
Ratio AUC (Homo sapiens [38]): 1.03
AUC(0-t) [39]: 4010 ng·h/mL
Tmax [40]: 1.4 h
k el [41]: 0.000229 s⁻¹
AUC(0-t) [42]: 4020 ng·h/mL
Cmax [43]: 1120 ng/mL
Vd (Homo sapiens [44]): 8.8 L/kg
Tmax [45]: 1.38 h
AUC(0-inf) [46]: 4790 ng·h/mL
SMILES: CC[C@H]1OC(=O)[C@H](C)[C@@H](O[C@H]2C[C@@](C)(OC)[C@@H](O)[C@H](C)O2)[C@H](C)[C@@H](O[C@@H]2O[C@H](C)C[C@H](N(C)C)[C@H]2O)[C@](C)(O)C[C@@H](C)C(=O)[C@H](C)[C@@H](O)[C@]1(C)O [ERYTHROMYCIN]
